Test results as given in article PMC3152597 (Bioorganic & medicinal chemistry, 2011).
pIC50: −log10 of the molar value. Entries after “also recorded” stand apart in the source; their conditions may differ. One block for each compound: values may come before it.

Experiments:
[1] = In vitro metabolic stability, human liver microsomes; details: 50 µM; LC-MS/MS metabolite identification
Bovine brain tubulin = test: In vitro microtubule polymerization assay; format: biochemical; details: after 15 min, absorbance at 340 nm, 37 °C
[2] = In vitro metabolic stability, dog liver microsomes; format: in vitro ADME
[3] = In vitro metabolic stability, rat liver microsomes; details: 50 µM; LC-MS/MS metabolite identification
MDR cancer cell lines = test: Antiproliferative activity, MDR cancer cell lines; format: cell-based; details: Homo sapiens, read-out: potency on resistant (MDR) cancer cell lines (range)
[4] = In vitro metabolic stability, mouse liver microsomes; details: 50 µM; LC-MS/MS metabolite identification
[5] = tested on: nonresistant cancer cell lines; test: Antiproliferative activity, nonresistant cancer cell lines; format: cell-based; details: Homo sapiens, read-out: potency on nonresistant cancer cell lines (range)
[6] = tested on: two melanoma (A375, WM164) and four prostate cancer cell lines (LNCaP, PC-3, Du 145, PPC-1); test: Antiproliferative activity, all six cancer cell lines together; format: cell-based, human; details: for fold decrease in potency compared with parent compound: average IC50 versus parent ABI-I compound (1a, 1c); for pIC50: Homo sapiens, read-out: IC50 values (range over the cancer cell lines)
DU145-TxR = test: Antiproliferative activity, paclitaxel-resistant DU145-TxR; format: cell-based, human
PC-3-TxR = test: Antiproliferative activity, paclitaxel-resistant PC-3-TxR; format: cell-based, human; details: IC50 on PC-3-TxR divided by IC50 on PC-3

SMILES: COc1cc(C(=O)c2cn(C)c(-c3ccc(C)cc3)n2)cc(OC)c1OC [3ab]
- metabolic pathway in human liver microsomes [1]: Hydroxylation on the para-methyl of the A ring was a major metabolic pathway; also recorded: Ketone reduction was only detected in human liver microsomes; also recorded: O-demethylation was a minor metabolic pathway
- inhibition of tubulin polymerization at 20 µM (Bovine brain tubulin): Complete inhibition
- half-life in dog liver microsomes (in words) ([2]; 0.5 µM compound, 1 mg/mL microsomal protein, 37 °C): slightly longer half-life than that of compound 1a
- metabolic pathway in dog liver microsomes ([2]; 50 µM, LC-MS/MS metabolite identification): Hydroxylation on the para-methyl of the A ring was a major metabolic pathway; also recorded: O-demethylation was a minor metabolic pathway
- metabolic pathway in rat liver microsomes [3]: N-demethylation represented the major pathway; also recorded: Hydroxylation on the para-methyl of the A ring was a major metabolic pathway; also recorded: O-demethylation was a minor metabolic pathway
- pIC50 (MDR cancer cell lines): 7.10 to 7.30
- metabolic pathway in mouse liver microsomes [4]: Hydroxylation on the para-methyl of the A ring was a major metabolic pathway; also recorded: O-demethylation was a minor metabolic pathway; also recorded: N-demethylation represented the major pathway
- pIC50 [5]: 7.10 to 7.30

SMILES: COc1cc(C(=O)c2c[nH]c(-c3ccc(Cl)cc3)n2)cc(OC)c1O [2c, (2-(4-Chlorophenyl)-1H-imidazol-4-yl)(4-hydroxy-3,5-dimethoxyphenyl)methanone]
- fold decrease in potency compared with parent compound [6]: 10-to 20 fold

SMILES: COc1cc(C(=O)c2cc3ccc(F)cc3n2C)cc(OC)c1OC [13b, (6-Fluoro-1-methyl-1H-indol-2-yl)(3,4,5-trimethoxyphenyl)methanone]
- pIC50 [6]: 5.00 to 6.00

- pIC50 (MDR cancer cell lines): 7.10 to 7.30
- pIC50 [5]: 7.10 to 7.30
SMILES: COc1cc(C(=O)c2c[nH]c(-c3ccc(Br)cc3)n2)cc(OC)c1OC [8a, (2-(4-Bromophenyl)-1H-imidazol-4-yl)(3,4,5-trimethoxyphenyl)methanone]
- inhibition of tubulin polymerization at 10 µM (Bovine brain tubulin; 10 µM): Complete inhibition
- inhibition of tubulin polymerization at 20 µM (Bovine brain tubulin): Complete inhibition
- Resistance index (R) DU145-TxR (DU145-TxR; IC50 on DU145-TxR divided by IC50 on Du145): ≈ 1
- Resistance index (R) PC-3-TxR (PC-3-TxR): ≈ 1

SMILES: COc1cc(C(=O)c2c[nH]c(-c3ccc(C)cc3)n2)cc(OC)c1O [2a, (4-Hydroxy-3,5-dimethoxyphenyl)(2-(p-tolyl)-1H-imidazol-4-yl)methanone]
- fold decrease in potency compared with parent compound [6]: 10-to 20 fold

SMILES: COc1cc(C(=O)c2cn(Cc3ccccc3)c(-c3ccc(C)cc3)n2)cc(OC)c1OC [3aa, (1-Benzyl-2-(p-tolyl)-1H-imidazol-4-yl)(3,4,5-trimethoxyphenyl)methanone]
- fold decrease in potency compared with parent compound [6]: 90 fold

- pIC50 (DU145-TxR; Homo sapiens, read-out: IC50±SEM DU145-TxR): < 5.52
- pIC50 (MDR cancer cell lines): < 6.40
SMILES: CC(=O)O[C@H]1C(=O)[C@@]2(C)[C@H]([C@H](OC(=O)c3ccccc3)[C@]3(O)C[C@H](OC(=O)[C@H](O)[C@@H](NC(=O)c4ccccc4)c4ccccc4)C(C)=C1C3(C)C)[C@]1(OC(C)=O)CO[C@@H]1C[C@@H]2O [Paclitaxel, reference compound]

- pIC50 [6]: 5.00 to 6.00
SMILES: COc1cc(C(=O)c2cc3cc(F)ccc3[nH]2)cc(OC)c1OC [12f, (5-Fluoro-1H-indol-2-yl)(3,4,5-trimethoxyphenyl)methanone]

SMILES: COc1cc(C(=O)c2cc3ccc(Cl)cc3n2C)cc(OC)c1OC [13aa, (6-Chloro-1-methyl-1H-indol-2-yl)(3,4,5-trimethoxyphenyl)methanone]
- pIC50 [6]: 5.00 to 6.00
